Assay [1] deals with BaF3. Briefly: Antiproliferative activity against mouse BaF3 cells harboring wild-type FGFR1 assessed as reduction in cell proliferation measured after 72 hrs by MTS assay. Format: functional, cell-based. As to conditions: BaF3, 72 h.
The test system of assay [2] is BaF3. Briefly: Antiproliferative activity against mouse BaF3 cells harboring wild-type FGFR2 assessed as reduction in cell proliferation measured after 72 hrs by MTS assay. Format: functional, cell-based. Particulars: BaF3, 72 h.
For assay [3], the system named is BaF3. Briefly: Antiproliferative activity against mouse BaF3 cells harboring wild-type FGFR4 assessed as reduction in cell proliferation measured after 72 hrs by MTS assay. It counts as functional, cell-based. As to conditions: BaF3, 72 h. (Tetrazolium assays rely on reduction of a dye to a coloured formazan, in cell work by metabolically active cells.)
For assay [4], the system named is BaF3. Briefly: Antiproliferative activity against mouse BaF3 cells harboring wild-type FGFR3 assessed as reduction in cell proliferation measured after 72 hrs by MTS assay. It counts as functional, cell-based. Particulars: BaF3, 72 h.
In assay [5] the test system is BaF3. As to the kind of experiment: Antiproliferative activity against mouse BaF3 cells harboring FGFR2 V564M mutant assessed as reduction in cell proliferation measured after 72 hrs by MTS assay. It counts as functional, cell-based. Particulars: BaF3, 72 h.
Assay [6] is described as follows: Inhibition of SRC T338M mutant (unknown origin). The arrangement: species or system Homo sapiens.

Broadly, the EC50 is the concentration that produces a half-maximal response. For `C=CC(=O)Nc1ccc(CN2C(=O)N(c3cc(OC)cc(OC)c3)Cc3cnc(Nc4ccc(N5CCN(C)CC5)cc4)nc32)cc1`, the EC50 worked out at 1 nM in the assay on BaF3 [1]; 1 nM with BaF3 [2]; 1 nM in the assay on BaF3 [3]; 1 nM with BaF3 [4]; 58 nM in the assay with BaF3 [5].
In general, IC50 refers to the midpoint of a concentration-inhibition curve. Read a low IC50 as inhibition by little substance. Take `C=CS(=O)(=O)NCCC(=O)Nc1cccc(Nc2nccc(Nc3ncc(C(=O)Nc4c(C)cccc4Cl)s3)n2)c1`: the IC50 in assay [6] came out at 44 nM. That is a double-digit nanomolar value.
`C=CC(=O)Nc1ccc(CN(C(=O)Nc2c(Cl)c(OC)cc(OC)c2Cl)c2cc(Nc3ccc(N4CCN(C)CC4)cc3)ncn2)cc1`: the EC50 came out at 1 nM with BaF3 [1]; 1 nM in the assay on BaF3 [2]; 1 nM in the assay with BaF3 [3]; 1 nM with BaF3 [4]; 64 nM with BaF3 [5].

Values taken from ChEMBL document CHEMBL5104097, “Discovery of Cysteine-targeting Covalent Protein Kinase Inhibitors” (J Med Chem, 2022).
